From publication PMC6792352, “Limited Chemical Structural Diversity Found to Modulate Thyroid Hormone Receptor in the Tox21 Chemical Library” (Environmental Health Perspectives, 2019)
Where a name gives a salt, the structure may show the parent alone.

Test: in vitro
Details: rat, gh3-tre-luc cells

| SMILES | CC50 at 24 h (AC50 (uM) modified / 1000) [µM] | other results |
| --- | --- | --- |
| COc1cccc2sc(N)nc12 [2-Amino-4-methoxybenzothiazole] | > 90 | – |
| CC(CC=O)CC(C)(C)C (centres unmarked) [3,5,5-Trimethylhexanal] | > 90 | – |
| O=S(=O)(O)C(F)(F)C(F)(F)C(F)(F)C(F)(F)C(F)(F)C(F)(F)C(F)(F)C(F)(F)F [Perfluorooctanesulfonic acid] | – | CC50 at 24 h (AC50 (uM) modified / 1000, Tox21_110001=Tox21_400083, viability, 1 nM T3 present, 24 h): > 90 µM |
| CCCCOCCOC(=O)c1ccccc1C(=O)OCCOCCCC [Bis(2-butoxyethyl) phthalate] | > 90 | – |
| CC1(C)C(=O)NC(=O)NC1=O [5,5-Dimethylbarbituric acid] | > 90 | – |
| CSc1nc(N=[N+]=[N-])nc(NC(C)C)n1 [Aziprotryne] | – | CC50 at 24 h (AC50 (uM) modified / 1000, Tox21_110001=Tox21_301004, viability, 1 nM T3 present, 24 h): > 90 µM |
| N=C(Nc1ccccc1)Nc1ccccc1 [1,3-Diphenylguanidine] | > 50 | – |
| Brc1cc(-c2ccc(Br)c(Br)c2Br)cc(Br)c1Br [Polybrominated biphenyls (PBB)] | > 50 | – |
| O=C(/C=C/c1ccc([N+](=O)[O-])cc1)c1ccccc1 [4-Nitrochalcone] | > 90 | – |
| CC(C)(C)CC(C)(C)c1ccccc1O [(1,1,3,3-Tetramethylbutyl)phenol (all isomers)] | 31.1 | – |
| Cn1c(N)c(N=O)c(=O)n(C)c1=O [6-Amino-1,3-dimethyl-5-nitroso-2,4(1H,3H)-pyrimidinedione] | > 90 | – |
| O=Cc1ccc(Cl)cc1Cl [2,4-Dichlorobenzaldehyde] | – | CC50 at 24 h (AC50 (uM) modified / 1000, Tox21_110001=Tox21_201217, viability, 1 nM T3 present, 24 h): > 90 µM |
| O=C1OC(OC(=O)c2cccnc2Nc2cccc(C(F)(F)F)c2)c2ccccc21 (centres unmarked) [Talniflumate] | > 50 | – |
| CC(=O)CC(c1ccccc1)c1c(O)c2ccccc2oc1=O (centres unmarked) [Warfarin] | > 90 | – |
| O=C1C(Cl)=C(Cl)C(=O)C(Cl)=C1Cl [Chloranil] | – | CC50 at 24 h (AC50 (uM) modified / 1000, Tox21_110001=Tox21_201656, viability, 1 nM T3 present, 24 h): 12.7 µM; CC50 at 24 h (AC50 (uM) modified / 1000, Tox21_110001=Tox21_303021, viability, 1 nM T3 present, 24 h): 20.3 µM |
| CC(/C=C/C=C(\C)C(=O)O[C@@H]1O[C@H](CO[C@@H]2O[C@H](CO)[C@@H](O)[C@H](O)[C@H]2O)[C@@H](O)[C@H](O)[C@H]1O)=C\C=C\C=C(C)\C=C\C=C(/C)C(=O)O[C@@H]1O[C@H](CO[C@@H]2O[C@H](CO)[C@@H](O)[C@H](O)[C@H]2O)[C@@H](O)[C@H](O)[C@H]1O [Crocin] | > 50 | – |
| CC(C)(C)C1CCCCC1O (centres unmarked) [2-tert-Butylcyclohexanol] | > 90 | – |
| CNC(=O)c1ccccc1Sc1ccc2c(/C=C/c3ccccn3)n[nH]c2c1 [Axitinib] | > 50 | – |
| Cc1nc2ccccc2n1Cc1ccc(Cl)cc1 [Chlormidazole] | > 50 | – |
| Cc1ccc2oc(=O)ccc2c1 [6-Methyl coumarin] | > 90 | – |
| CCOC(=O)c1ccc(OC(=O)CCCCCNC(=N)N)cc1 [Gabexate mesilate] | > 20 | – |
| CCOCCOCCO [2-(2-Ethoxyethoxy)ethanol] | > 90 | – |

| SMILES | CC50 at 24 h (AC50 (uM) modified / 1000) [µM] | other results |
| --- | --- | --- |
| CCc1c(C)[nH]c2c1C(=O)C(CN1CCOCC1)CC2 (centres unmarked) [Molindone hydrochloride] | > 20 | – |
| Cc1ccc(C)c(N)c1 [2,5-Dimethylaniline] | > 90 | – |
| O=[N+]([O-])c1ccc(/C=C/c2ccc([N+](=O)[O-])cc2S(=O)(=O)O)c(S(=O)(=O)O)c1 [Disodium 4,4'-dinitro-2,2'-stilbenedisulfonate] | > 90 | – |
| CC(O)C(=O)O (centres unmarked) [Calcium lactate] | > 90 | – |
| CCOC(=O)Nc1ccc2c(c1)N(C(=O)CN(C)C)c1ccccc1CC2 [Tiracizine] | 41.3 | – |
| CN(C/C=C/c1ccccc1)Cc1cccc2ccccc12 [Naftifine hydrochloride] | 25 | – |
| CCN(CC)CCOC(=O)C(c1ccccc1)c1ccccc1 [Adiphenine hydrochloride] | 43.3 | – |
| O=S(=O)(O)c1ccc(Cl)cc1 [4-Chlorobenzenesulfonic acid] | > 90 | – |
| C=CCOC(C)=O [Allyl acetate] | > 90 | – |
| CC1=NN(c2ccc(S(=O)(=O)O)cc2)C(=O)C1N=Nc1ccccc1 (centres unmarked) [Acid Yellow 11] | 69.4 | – |
| C=CCOc1nc(OCC=C)nc(OCC=C)n1 [2,4,6-Tris(allyloxy)-1,3,5-triazine] | > 90 | – |
| Cc1ccccc1OCC(=O)O [(2-Methylphenoxy)acetic acid] | > 90 | – |
| O=NN(CCCl)C(=O)NCCCl [Carmustine] | > 50 | – |
| O=C1C(c2[nH]c3ccccc3c2O)=Nc2ccccc21 [Indigo dye] | > 90 | – |
| CC(=O)c1ccc2c(c1)CCCC2 [6-Acetyl-1,2,3,4-tetrahydronaphthalene] | > 90 | – |
| COc1c2ccoc2cc2oc(=O)ccc12 [5-Methoxypsoralen] | > 90 | – |
| CC(=O)Oc1cc(C)c(OC(C)=O)c2ccccc12 [Acetomenaphthone] | 19.7 | – |
| CCCCCCCCC=O [Nonanal] | > 90 | – |
| CC1=CC(=O)CC(C)(C)[C@@]1(O)/C=C/C(C)=C\C(=O)O [Abscisic acid] | > 90 | – |
| O=C(c1ccccc1)C1CCC1 [Cyclobutyl phenyl ketone] | > 90 | – |
| CN/C(=N/CC1CCOC1)N[N+](=O)[O-] (centres unmarked) [Dinotefuran] | > 90 | – |
| C=CC1CC=CCC1 (centres unmarked) [4-Vinylcyclohexene] | > 90 | – |

| SMILES | CC50 at 24 h (AC50 (uM) modified / 1000) [µM] | other results |
| --- | --- | --- |
| CN1CCN(CCCN2c3ccccc3Sc3ccc(S(=O)(=O)N(C)C)cc32)CC1 [Thioproperazine dimethanesulfonate] | 14.2 | – |
| Cc1ncsc1CCCl [Clomethiazole] | – | CC50 at 24 h (AC50 (uM) modified / 1000, Tox21_110001=Tox21_110931, viability, 1 nM T3 present, 24 h): > 50 µM |
| CC(C)c1ccc(C=O)cc1 [4-Isopropylbenzaldehyde] | > 90 | – |
| C[N+]1(C)[C@@H]2C[C@@H](OC(=O)C(O)(c3cccs3)c3cccs3)C[C@H]1[C@@H]1O[C@@H]12 [Tiotropium bromide] | > 50 | – |
| c1ccc2cnncc2c1 [Phthalazine] | > 90 | – |
| C#C[C@]1(O)CC[C@H]2[C@@H]3CCC4=CCCC[C@@H]4[C@H]3C(=C)C[C@@]21CC [Desogestrel] | 34.9 | – |
| CCCCCCCC/C=C/CCCCCCCC(=O)OCCO [Polyoxyethylene monoleate] | > 100 | – |
| Cc1ccc(O)c([N+](=O)[O-])c1 [4-Methyl-2-nitrophenol] | > 90 | – |
| C[C@H](N)[C@H](O)c1cccc(O)c1 [Metaraminol bitartrate] | > 20 | – |
| COc1c2occc2cc2ccc(=O)oc12 [8-Methoxypsoralen] | > 50 | – |
| Cc1cc(F)ccc1-c1cc(N2CC[C@@H](O)[C@H]2CO)ncc1N(C)C(=O)C(C)(C)c1cc(C(F)(F)F)cc(C(F)(F)F)c1 [PharmaGSID_48513] | 12.5 | – |
| CC1CCCO1 (centres unmarked) [2-Methyltetrahydrofuran] | > 90 | – |
| CCCCC(CC)COC(=O)c1ccccc1C(=O)O (centres unmarked) [MEHP] | > 90 | – |
| Cc1cccc(N(C)C(=S)Oc2ccc3c(c2)CCC3)c1 [Tolindate] | > 50 | – |
| CCCSc1cc(OC)c(CCN)cc1OC [2-[2,5-dimethoxy-4-(propylsulfanyl)phenyl]ethanamine hydrochloride] | – | CC50 at 24 h (AC50 (uM) modified / 1000, Tox21_110001=Tox21_112821, viability, 1 nM T3 present, 24 h): 34.6 µM |
| CC(C)(C)c1cc(CCC(=O)OCC(COC(=O)CCc2cc(C(C)(C)C)c(O)c(C(C)(C)C)c2)(COC(=O)CCc2cc(C(C)(C)C)c(O)c(C(C)(C)C)c2)COC(=O)CCc2cc(C(C)(C)C)c(O)c(C(C)(C)C)c2)cc(C(C)(C)C)c1O [Irganox 1010] | > 40 | – |
| CCCCCC=O [Hexanal] | > 100 | – |
| CC(C)=CCCC(C)=CC#N [Citralva] | > 90 | – |
| CC(C)=C1CC[C@@H](C)CC1=O [R-(+)-Pulegone] | > 90 | – |
| C(=C/c1ccccc1)/c1ccccc1 [cis-Stilbene] | > 90 | – |
| OCCC1CCCCN1 (centres unmarked) [2-?Piperidineethanol] | > 90 | – |
| O=c1nn[nH]c2ccccc12 [1,2,3-Benzotriazin-4(1H)-one] | > 90 | – |

| SMILES | CC50 at 24 h (AC50 (uM) modified / 1000) [µM] | other results |
| --- | --- | --- |
| CC(C)CCCC(C)CC=O (centres unmarked) [3,7-Dimethyloctanal] | > 90 | – |
| C=CCc1ccccc1O [2-Allylphenol] | > 90 | – |
| CC(C)=O [Acetone] | > 90 | – |
| O=P(O)(O)CCCl [Ethephon] | > 90 | – |
| C=C(C)c1ccccc1 [alpha-Methylstyrene] | > 90 | – |
| O=C(O)c1cc(O)c2ccccc2c1O [1,4-Dihydroxy-2-naphthoic acid] | 12.2 | – |
| c1ccc2nc(N3CCNCC3)ccc2c1 [Quipazine maleate] | 36.9 | – |
| COC1CC(=C(c2cccs2)c2cccs2)C[N+](C)(C)C1 (centres unmarked) [Timepidium bromide] | – | CC50 at 24 h (AC50 (uM) modified / 1000, Tox21_110001=Tox21_112659, viability, 1 nM T3 present, 24 h): > 50 µM |
| Cc1cc(Cl)ccc1O [4-Chloro-2-methylphenol] | > 90 | – |
| CCN(CC)C1CCCCC1 [N,N-Diethylcyclohexylamine] | > 90 | – |
| CC(C)NNC(=O)c1ccncc1 [Iproniazid sulfate] | > 50 | – |
| Nc1nc(Cl)cc(Cl)n1 [2-Amino-4,6-dichloropyrimidine] | > 90 | – |
| Clc1nc(Cl)nc(Nc2ccccc2Cl)n1 [Anilazine] | > 90 | – |
| Cc1ccc(C)c(S(=O)(=O)O)c1 [2,5-Dimethylbenzenesulfonic acid] | > 80 | – |
| CCN(CC)c1ccc(N)cc1 [N,N-Diethylbenzene-1,4-diamine] | 64.7 | – |
| COc1ccc(-c2coc3cc(O)cc(O)c3c2=O)cc1 [Biochanin A] | > 90 | – |
| O=C(OCCO)c1ccccc1O [2-Hydroxyethyl salicylate] | > 50 | – |
| NS(=O)(=O)c1ccccc1Cl [2-Chlorobenzenesulfonamide] | > 90 | – |
| CC(=O)C1CCCCC1=O (centres unmarked) [Cyclohexanone,2-acetyl-] | > 90 | – |
